From patent publication US20250090614A1, “COMPOSITIONS AND METHODS FOR IMPROVING LUNG FUNCTION” (priority 2023, published 2025)

How the values were obtained:
Type in all cases: in vivo, mouse
AMPK = AMPK ELISA in lung tissue homogenate of aged mice; settings: aged C57BL/6 mice, 25 mg/kg p.o. each substance, 90 days
Procedure: The experiments were performed in old C57b1/6 mice (28-30 weeks). Table 1 discloses the groups of mice used for the experimentation. C57BL/6 mice were bred and naturally aged in a pathogen-free colony. Mice were group-housed six per cage for the treatment regimen and maintained on a 12-hr light-dark schedule with ad libitum access to food and water. All experiments were designed according to the principles of animal use for gerontological research (Miller, R. A., & Nadon, N. L. (2000). Principles of animal use for gerontological research. Journals of Gerontology. Series A, Biological Sciences and Medical Sciences, 55, B117-B123)
The above test substances were administered to the mice for a period of 90 days. Rapamycin was used as a positive control. After 90 days of administration experiments were performed to assess the respiratory muscle function, anatomical changes, cellular senescence and immunological changes.
Activation of AMPK delays senescence. Abnormal autophagy and aging promote each other, and AMPK is an important regulator of this process. AMPK is involved in the transduction of several aging-related signaling pathways. AMPK intervenes in the development of many age-related diseases.

old C57b1/6 mice = assay: Transdiaphragmatic pressure (Pdimax) in aged mice; settings: aged C57BL/6 mice, anesthetized, eupnoea, 25 mg/kg p.o. each substance, 90 days
Procedure: The experiments were performed in old C57b1/6 mice (28-30 weeks). Table 1 discloses the groups of mice used for the experimentation. C57BL/6 mice were bred and naturally aged in a pathogen-free colony. Mice were group-housed six per cage for the treatment regimen and maintained on a 12-hr light-dark schedule with ad libitum access to food and water. All experiments were designed according to the principles of animal use for gerontological research (Miller, R. A., & Nadon, N. L. (2000). Principles of animal use for gerontological research. Journals of Gerontology. Series A, Biological Sciences and Medical Sciences, 55, B117-B123) [table] […] The respiratory muscle function in the study animals was assessed by estimating the Tidal Volume, Minute ventilation, Transdiaphragmatic pressure ([…]) and Respiratory rate. […] Anesthetized mice were monitored continually for temperature, oxygen saturation, and heart rate. Palpebral reflex and pain response were monitored to ensure depth of anaesthesia. […] Spontaneous ventilation was maintained, the abdomen was bound, and Pdi was recorded using solid-state pressure catheters. […] The pressure data were collected using a PowerLab 8/35 data-acquisition system and analyzed using LabChart ([…]., & Mantilla, C. B. (2013). Novel method for transdiaphragmatic pressure measurements in mice. Respiratory Physiology & Neurobiology, 188, 56-59)

SIRT1 = SIRT1 ELISA in lung tissue homogenate of aged mice; settings: aged C57BL/6 mice, 25 mg/kg p.o. each substance, 90 days
Procedure: The experiments were performed in old C57b1/6 mice (28-30 weeks). Table 1 discloses the groups of mice used for the experimentation. C57BL/6 mice were bred and naturally aged in a pathogen-free colony. Mice were group-housed six per cage for the treatment regimen and maintained on a 12-hr light-dark schedule with ad libitum access to food and water. All experiments were designed according to the principles of animal use for gerontological research (Miller, R. A., & Nadon, N. L. (2000). Principles of animal use for gerontological research. Journals of Gerontology. Series A, Biological Sciences and Medical Sciences, 55, B117-B123) [table] The above test substances were administered to the mice for a period of 90 days. Rapamycin was used as a positive control. After 90 days of administration experiments were performed to assess the respiratory muscle function, anatomical changes, cellular senescence and immunological changes. A number of cellular mechanisms and alterations constitute the hallmarks of cellular senescence. These include a stable cell cycle arrest chromatin alteration & reorganization; Inhibition of Sirt-1. Inhibition of AMPK and Dysregulation of mTOR. Silencing information regulator 2 related enzyme 1 (sirtuin1, SIRT1) is an NAD+-dependent deacetylase, which is involved in the regulation of cellular senescence and aging. The expression of SIRT1 is diminished with aging in mice. […]

O=C(/C=C/c1ccc(O)c(O)c1)O[C@H](Cc1ccc(O)c(O)c1)C(=O)O [Rosmarinic acid]
AMPK levels (AMPK): increased
Transdiaphragmatic pressure (Pdimax) (old C57b1/6 mice): increase
expression of SIRT1 (SIRT1): increased
